From the NIST ThermoML archive (doi:10.1021/je025657+)
Values joined by “and” are separate entries in the source; they are usually repeats but may differ in a detail not shown here. Equal entries are not always repeated.

Conditions: for vapor or sublimation pressure: Closed cell (Static) method

COC(F)(F)F [trifluoromethoxymethane]
Conditions | mass density [kg/m3]
290 K, 4029.3 kPa, Liquid | 1136.09
290 K, 4505 kPa, Liquid | 1138.14
290 K, 4999.6 kPa, Liquid | 1140.25
290 K, 5546.1 kPa, Liquid | 1142.55
290 K, 6046.4 kPa, Liquid | 1144.61
290 K, 6496.3 kPa, Liquid | 1146.42
290 K, 6981.5 kPa, Liquid | 1148.28
300 K, 31.3 kPa, Gas | 1.25
300 K, 46.2 kPa, Gas | 1.89
300 K, 68 kPa, Gas | 2.77
300 K, 100.1 kPa, Gas | 4.12
300 K, 146.6 kPa, Gas | 6.12
300 K, 214 kPa, Gas | 9.08
300 K, 306.3 kPa, Gas | 13.34
300 K, 439.5 kPa, Gas | 19.94
300 K, 589.3 kPa, Gas | 28.11
300 K, 617 kPa, Liquid | 1086.54
300 K, 658.2 kPa, Liquid | 1086.45
300 K, 913.6 kPa, Liquid | 1088.34
300 K, 1058.4 kPa, Liquid | 1088.91
300 K, 1466.6 kPa, Liquid | 1091.63
300 K, 1522.9 kPa, Liquid | 1091.63
300 K, 1998.6 kPa, Liquid | 1094.68
300 K, 2016.1 kPa, Liquid | 1094.48
300 K, 2526.4 kPa, Liquid | 1097.64
300 K, 2545.5 kPa, Liquid | 1097.41
300 K, 3023.5 kPa, Liquid | 1100.35
300 K, 3063.2 kPa, Liquid | 1100.24
300 K, 3486.7 kPa, Liquid | 1102.83
300 K, 3535.6 kPa, Liquid | 1102.72
300 K, 4015.2 kPa, Liquid | 1105.57
300 K, 4063.9 kPa, Liquid | 1105.45
300 K, 4499.8 kPa, Liquid | 1108.05
300 K, 4569.3 kPa, Liquid | 1107.99
300 K, 5014.6 kPa, Liquid | 1110.58
300 K, 5140.6 kPa, Liquid | 1110.81
300 K, 5517 kPa, Liquid | 1113.05
300 K, 5669.7 kPa, Liquid | 1113.35
300 K, 6023 kPa, Liquid | 1115.44
300 K, 6155.2 kPa, Liquid | 1115.66
300 K, 6499 kPa, Liquid | 1117.65
300 K, 6683.2 kPa, Liquid | 1118.07
300 K, 6960.3 kPa, Liquid | 1119.71
300 K, 7091.7 kPa, Liquid | 1119.94
310 K, 38.3 kPa, Gas | 1.49
310 K, 56.5 kPa, Gas | 2.22
310 K, 83.1 kPa, Gas | 3.29
310 K, 121.9 kPa, Gas | 4.87
310 K, 178.2 kPa, Gas | 7.22
310 K, 258.9 kPa, Gas | 10.69
310 K, 372.5 kPa, Gas | 15.8
310 K, 528.4 kPa, Gas | 23.4
310 K, 742.6 kPa, Gas | 35.17
310 K, 813.1 kPa, Liquid | 1051.26
310 K, 836.7 kPa, Liquid | 1051.44
310 K, 861.7 kPa, Liquid | 1051.63
310 K, 1006.3 kPa, Liquid | 1053.19
310 K, 1033.6 kPa, Liquid | 1052.9
310 K, 1512.4 kPa, Liquid | 1056.88
310 K, 1533.9 kPa, Liquid | 1056.54
310 K, 2000.5 kPa, Liquid | 1060.31
310 K, 2046.2 kPa, Liquid | 1060.13
310 K, 2498.6 kPa, Liquid | 1063.7
310 K, 2539.9 kPa, Liquid | 1063.48
310 K, 3027.3 kPa, Liquid | 1067.18
310 K, 3099.5 kPa, Liquid | 1067.15
310 K, 3517 kPa, Liquid | 1070.31
310 K, 3564.5 kPa, Liquid | 1070.1
310 K, 4017.7 kPa, Liquid | 1073.4
310 K, 4131.5 kPa, Liquid | 1073.59
310 K, 4531.7 kPa, Liquid | 1076.5
310 K, 5049.8 kPa, Liquid | 1079.54
310 K, 5149.7 kPa, Liquid | 1079.59
310 K, 5542 kPa, Liquid | 1082.34
310 K, 5630.8 kPa, Liquid | 1082.31
310 K, 6021.1 kPa, Liquid | 1085.02
310 K, 6210.4 kPa, Liquid | 1085.5
310 K, 6538.6 kPa, Liquid | 1087.83
310 K, 6998 kPa, Liquid | 1090.22
310 K, 7191.1 kPa, Liquid | 1090.69
320 K, 46.4 kPa, Gas | 1.77
320 K, 68.4 kPa, Gas | 2.64
320 K, 100.6 kPa, Gas | 3.89
320 K, 147.5 kPa, Gas | 5.74
320 K, 215.4 kPa, Gas | 8.49
320 K, 312.9 kPa, Gas | 12.57

Liquid
Conditions | mass density | vapor or sublimation pressure
290 K | 1119.31 kg/m3 | –
300 K | 1086.15 kg/m3 and 1086.47 kg/m3 and 1086.56 kg/m3 | 607.7 kPa and 607.3 kPa
305 K | – | 698.7 kPa
310 K | 1054.67 kg/m3 [middle of 4 runs] | 800.9 kPa and 800.7 kPa and 801.7 kPa
315 K | – | 914.3 kPa

Gas, Burnett expansion method
Conditions | mass density [kg/m3]
300 K, 124.2 kPa | 5.136
300 K, 170.5 kPa | 7.128
300 K, 183.4 kPa | 7.703
300 K, 251.4 kPa | 10.75
300 K, 268.7 kPa | 11.56
300 K, 364.7 kPa | 16.13
300 K, 388.1 kPa | 17.29
300 K, 519.4 kPa | 24.16
300 K, 550.3 kPa | 25.89
310 K, 128.7 kPa | 5.137
310 K, 177.1 kPa | 7.139
310 K, 190.3 kPa | 7.705
310 K, 261 kPa | 10.74
310 K, 279.4 kPa | 11.56
310 K, 380.4 kPa | 16.14
310 K, 405 kPa | 17.3
310 K, 545.9 kPa | 24.27
310 K, 578.6 kPa | 25.97
310 K, 759.9 kPa | 36.24
320 K, 133.1 kPa | 5.135
320 K, 183.4 kPa | 7.139
320 K, 197.1 kPa | 7.701
320 K, 270.9 kPa | 10.74
320 K, 289.9 kPa | 11.55
320 K, 395.7 kPa | 16.14
